Data from patent US20170266266A1, “Functions of 55 Newfound Proteins and Their Medicinal Application in the Treatment and Prevention of Disease” (priority 2012, published 2017).
“And” between values parts separate entries of the source, which are not always exact repeats. Equal values may be shown once. Read-outs that look alike come from different tables or passages of the source.

System: fatty streak lesions in rabbits on high fat diet
Assay type: in vivo, rabbit
Design: HDL-C, Wk 0 / HDL-C, Wk 18 or wk 21 / Fatty streak lesions area, Compare to wk 10 of control group / Fatty streak lesions area, Compare to wk 18 of control group: unit not given here
Details: for lipid con. at dissected aorta: triglyceride content; for increase of area of fatty streak lesion: control group 187%
Experimental: The rabbits were fasted for 12 hrs before the beginning of the experiments. Blood parameters were then tested as the normal level of plasma indicators. A total of 52 rabbits were purchased at different time, four of them were used as normal control and fed with normal diet the whole time during the experiments. […] Plasma concentrations of total cholesterol (TC), […] (TG), low density lipoprotein-cholesterol (LDL-C), very low density lipoprotein-cholesterol (VLDL-C), high density lipoprotein-cholesterol (HDL-C) were quantified by enzymatic assays. TC/HDL-C or ([…] ratios were then determined. Animals were sacrificed under deep anesthesia with sodium pentobarbital 25 mg/kg IV. The entire aorta from the aortic valve to the iliac bifurcation was removed from each rabbit and opened longitudinally. […] Atheromatous lesions were measured without staining Atheromatous lesions were manually traced in the photographs, and the percent area of the atheromatous lesions was calculated. Sample of aorta from animals were homogenated. And the content of lipid was determined.

[1] = APOA1 group 1, Wk 0 (start of high fat diet)
[2] = APOA1 group 1, Wk 10 (before APOA1 administration)
[3] = APOA1 group 1, Wk 18 (end of APOA1 administration)
[4] = APOA1 group 2, Wk 0 (start of high fat diet)
[5] = APOA1 group 2, Wk 10 (before APOA1 administration)
[6] = APOA1 group 2, Wk 21 (end of APOA1 administration)

human Apolipoprotein AI [APOAI]
TC/HDL-C [1]: 1.938
plasma HDL-C [1]: 0.748
plasma LDL-C [1]: 0.282
plasma TCH [1]: 1.152
plasma TG [1]: 0.967
plasma VLDL-C [1]: 0.870
TC/HDL-C [2]: 6.560
plasma HDL-C [2]: 8.261
plasma LDL-C [2]: 21.157
plasma TCH [2]: 36.153
plasma TG [2]: 5.191
plasma VLDL-C [2]: 14.996
TC/HDL-C [3]: 3.000
plasma HDL-C [3]: 1.46
plasma LDL-C [3]: 2.60
plasma TCH [3]: 3.69
plasma TG [3]: 1.17
plasma VLDL-C [3]: 1.09
TC/HDL-C [4]: 4.185
plasma HDL-C [4]: 0.432
plasma LDL-C [4]: 0.472
plasma TCH [4]: 1.430
plasma TG [4]: 0.93
plasma VLDL-C [4]: 0.958
TC/HDL-C [5]: 3.667
plasma HDL-C [5]: 10.168
plasma LDL-C [5]: 19.24
plasma TCH [5]: 34.683
plasma TG [5]: 4.507
plasma VLDL-C [5]: 15.443
TC/HDL-C [6]: 3.844
plasma HDL-C [6]: 1.17
plasma LDL-C [6]: 2.19
plasma TCH [6]: 3.322
plasma TG [6]: 1.94
plasma VLDL-C [6]: 1.14
HDL-C, Wk 0 (APOAI Group 1): 0.748
lipid con. at dissected aorta (APOAI Group 1 (n = 7)): 0.025 ± 0.0095 µmol/mg
Fatty streak lesions area (APOAI Group 1, Wk 18): 43.84%
Fatty streak lesions area, Compare to wk 10 of control group (APOAI Group 1, Wk 18): 19.03
Fatty streak lesions area, Compare to wk 18 of control group (APOAI Group 1, Wk 18): −27.36
Fatty streak lesions area, Decrease % (compare to wk 18 of control group) (APOAI Group 1, Wk 18): 38.43%
Fatty streak lesions area, Increase % (compare to wk 10 of control group) (APOAI Group 1, Wk 18): 77%
HDL-C, Concentration increased (APOAI Group 1, wk 0 to wk 18): 0.716
HDL-C, Fold increased (APOAI Group 1, wk 0 to wk 18): 1.436
HDL-C, Wk 0 (APOAI Group 2): 0.432
lipid con. at dissected aorta (APOAI Group 2 (n = 4)): 0.0267 ± 0.0054 µmol/mg
Fatty streak lesions area (APOAI Group 2, Wk 21): 50.51%
Fatty streak lesions area, Compare to wk 10 of control group (APOAI Group 2, Wk 21): 25.71
Fatty streak lesions area, Compare to wk 18 of control group (APOAI Group 2, Wk 21): −20.69
Fatty streak lesions area, Decrease % (compare to wk 18 of control group) (APOAI Group 2, Wk 21): 29.05%
Fatty streak lesions area, Increase % (compare to wk 10 of control group) (APOAI Group 2, Wk 21): 104%
HDL-C, Concentration increased (APOAI Group 2, wk 0 to wk 21): 0.992
HDL-C, Fold increased (APOAI Group 2, wk 0 to wk 21): 3.078
HDL-C, Wk 18 or wk 21 (APOAI group 1 (wk 18)): 1.464
decrease of area of fatty streak lesion vs control group (APOAI group 1 (wk 18)): 38% and 38.43%
TC/HDL-C vs control group (APOAI group 1, P<0.05): significant decrease
VLDL-C vs control group (APOAI group 1, P<0.05): significant decrease
increase of area of fatty streak lesion (APOAI group 1): 77%
rest of plasma lipid values vs control group (APOAI group 1 and 2): no significant change
HDL-C, Wk 18 or wk 21 (APOAI group 2 (wk 21)): 1.423
decrease of area of fatty streak lesion vs control group (APOAI group 2 (wk 21)): 29% and 29.05%
increase of area of fatty streak lesion (APOAI group 2): 104%
triglyceride content at dissected aorta vs control group (P<0.05): significantly lower
liver index vs control group (rabbit, in vivo): no difference
plasma lipid concentrations (TC, TG, LDL-C, VLDL-C, HDL-C) (vs animal without APOAI treatment): decrease in all plasma lipid concentrations
gross examination of inner surface of aorta (vs control group): no bumps on the inner surface of aorta
liver gross specimen (vs wk 10): less fatty change in gross specimen
